Results taken from patent publication US9603845B2, “Prophylactic agent and/or therapeutic agent for stress urinary incontinence” (priority 2012, dated 2017).
Marks after values point to notes of the source that are not given here.

What was measured:
female SD rats = assay: Leak point pressure (LPP) of a rat: intravesical pressure when urinary leakage occurs; assay type: in vivo; conditions: 3 mg/kg intravenous, 5 minutes after administration; for Leak point pressure (LPP): urethane-anesthetized, spinal cord-transected female SD rats, average ± standard error, physiological saline 24.6±0.6
[1] = test system: stress urinary incontinence model rats; conditions: rat, in vivo

Row | SMILES | LPP compared with the physiological saline group (in words) (female SD rats) | Leak point pressure (LPP) (female SD rats) | Frequency of urinary incontinence, 30 minutes after administration [1] | Frequency of urinary incontinence, 2 hours after administration [1] | Number of rats that express urinary incontinence due to the electrical stimulus (in words) [1] | Frequency of urinary incontinence, before administration ([1]; po)
1 | CCCOC(C(=O)OC1CCN(C)CC1)(c1ccccc1)c1ccccc1 [propiverine, α,α-diphenyl-α-n-propoxy acetic acid 1-methyl-4-piperidyl ester, reference compound] | no significant difference | 24.9±1.9 cmH2O |  |  |  | 
2 | CCCOC(C(=O)OC1CCNCC1)(c1ccccc1)c1ccccc1 [the compound of the present invention, 4-piperidyl diphenylpropoxyacetate] | significantly higher | 31.1±2.3 cmH2O | 4 | 3* | significantly decreased | 8
